Test results: the supplement of paper PMC10307832

Columns and labels:
Test in all cases: relative viability (nuclei count vs DMSO), 5 days (fraction); higher = more cells survive
CAP-232 + Navitoclax = compound: C[C@H]([C@@H](C(=O)N)NC(=O)[C@@H]1CSSC[C@@H](C(=O)N[C@H](C(=O)N[C@@H](C(=O)N[C@H](C(=O)N1)CCCCN)CC2=CNC3=CC=CC=C32)CC4=CC=C(C=C4)O)NC(=O)[C@@H](CC5=CC=CC=C5)N)O [CAP-232] + CC1(C)CCC(c2ccc(Cl)cc2)=C(CN2CCN(c3ccc(C(=O)NS(=O)(=O)c4ccc(N[C@H](CCN5CCOCC5)CSc5ccccc5)c(S(=O)(=O)C(F)(F)F)c4)cc3)CC2)C1 [Navitoclax] (partner 0.5 µM)
Procedure, shortened: (§1)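 Relative viability is defined as nuclei in treated wells over nuclei in vehicle wells. Duplicate plates were run and medians reported. Lung cancer cell lines in 1536-well plates were dosed by pin tool one day after seeding, with one drug or with a fixed anchor-drug dose plus five library-drug doses (not always all listed) in √10 steps, and nuclei were counted after 5 days.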

CAP-232 + Foretinib = compound: C[C@H]([C@@H](C(=O)N)NC(=O)[C@@H]1CSSC[C@@H](C(=O)N[C@H](C(=O)N[C@@H](C(=O)N[C@H](C(=O)N1)CCCCN)CC2=CNC3=CC=CC=C32)CC4=CC=C(C=C4)O)NC(=O)[C@@H](CC5=CC=CC=C5)N)O [CAP-232] + COc1cc2c(Oc3ccc(NC(=O)C4(C(=O)Nc5ccc(F)cc5)CC4)cc3F)ccnc2cc1OCCCN1CCOCC1 [Foretinib] (partner 0.25 µM)
Procedure, shortened: as §1

CAP-232 + Tozasertib = compound: C[C@H]([C@@H](C(=O)N)NC(=O)[C@@H]1CSSC[C@@H](C(=O)N[C@H](C(=O)N[C@@H](C(=O)N[C@H](C(=O)N1)CCCCN)CC2=CNC3=CC=CC=C32)CC4=CC=C(C=C4)O)NC(=O)[C@@H](CC5=CC=CC=C5)N)O [CAP-232] + Cc1cc(Nc2cc(N3CCN(C)CC3)nc(Sc3ccc(NC(=O)C4CC4)cc3)n2)n[nH]1 [Tozasertib] (partner 0.1 µM)
Procedure, shortened: as §1

CAP-232 + Dasatinib = compound: C[C@H]([C@@H](C(=O)N)NC(=O)[C@@H]1CSSC[C@@H](C(=O)N[C@H](C(=O)N[C@@H](C(=O)N[C@H](C(=O)N1)CCCCN)CC2=CNC3=CC=CC=C32)CC4=CC=C(C=C4)O)NC(=O)[C@@H](CC5=CC=CC=C5)N)O [CAP-232] + Cc1nc(Nc2ncc(C(=O)Nc3c(C)cccc3Cl)s2)cc(N2CCN(CCO)CC2)n1 [Dasatinib] (partner 0.075 µM)
Procedure, shortened: as §1

CAP-232 + Decitabine = compound: C[C@H]([C@@H](C(=O)N)NC(=O)[C@@H]1CSSC[C@@H](C(=O)N[C@H](C(=O)N[C@@H](C(=O)N[C@H](C(=O)N1)CCCCN)CC2=CNC3=CC=CC=C32)CC4=CC=C(C=C4)O)NC(=O)[C@@H](CC5=CC=CC=C5)N)O [CAP-232] + Nc1ncn([C@H]2C[C@H](O)[C@@H](CO)O2)c(=O)n1 [Decitabine] (partner 2 µM)
Procedure, shortened: as §1

Row | Cell Line | relative viability (CAP-232 + Navitoclax; first compound 0.4 µM) | relative viability (CAP-232 + Navitoclax; first compound 1.265 µM) | relative viability (CAP-232 + Navitoclax; first compound 4 µM) | relative viability (CAP-232 + Navitoclax; first compound 12.65 µM) | relative viability (CAP-232 + Foretinib; first compound 0.4 µM) | relative viability (CAP-232 + Foretinib; first compound 1.265 µM) | relative viability (CAP-232 + Foretinib; first compound 4 µM) | relative viability (CAP-232 + Foretinib; first compound 12.65 µM) | relative viability (CAP-232 + Tozasertib; first compound 0.4 µM) | relative viability (CAP-232 + Tozasertib; first compound 1.265 µM) | relative viability (CAP-232 + Tozasertib; first compound 4 µM) | relative viability (CAP-232 + Tozasertib; first compound 12.65 µM) | relative viability (CAP-232 + Dasatinib; first compound 0.4 µM) | relative viability (CAP-232 + Dasatinib; first compound 1.265 µM) | relative viability (CAP-232 + Dasatinib; first compound 4 µM) | relative viability (CAP-232 + Dasatinib; first compound 12.65 µM) | relative viability (CAP-232 + Decitabine; first compound 0.4 µM) | relative viability (CAP-232 + Decitabine; first compound 1.265 µM) | relative viability (CAP-232 + Decitabine; first compound 4 µM) | relative viability (CAP-232 + Decitabine; first compound 12.65 µM)
1 | NCI-H441 | 0.554 | 0.756 | 0.717 | 0.641 | 0.895 | 1.03 | 0.7 | 1.07 | 0.628 | 0.58 | 0.571 | 0.653 | 0.653 | 0.857 | 0.7 | 0.543 | 0.26 | 0.242 | 0.286 | 0.234
2 | NCI-H460 | 1.02 | 1.36 | 1.11 | 0.542 | 1.02 | 1.1 | 1.22 | 0.622 | 0.487 | 0.463 | 0.634 | 0.396 | 0.704 | 0.478 | 0.581 | 0.419 | 0.496 | 0.475 | 0.541 | 0.17
3 | NCI-H520 | 1.03 | 0.997 | 1.13 | 0.582 | 0.734 | 0.98 | 0.92 | 0.47 | 0.439 | 0.405 | 0.395 | 0.354 | 0.189 | 0.193 | 0.251 | 0.201 | 0.496 | 0.509 | 0.518 | 0.416
4 | NCI-H596 | 0.839 | 1 | 1.08 | 0.987 | 0.863 | 0.739 | 0.985 | 0.827 | 0.962 | 1.04 | 0.886 | 0.821 | 0.502 | 0.615 | 0.536 | 0.615 | 1.03 | 0.971 | 0.69 | 0.965
5 | NCI-H647 | 1.35 | 1.27 | 1.31 | 1.09 | 1.15 | 1.06 | 1.36 | 0.749 | 0.216 | 0.259 | 0.269 | 0.276 | 0.259 | 0.155 | 0.179 | 0.125 | 0.308 | 0.372 | 0.318 | 0.297
6 | NCI-H727 | – | 0.431 | 0.377 | 0.347 | 0.933 | 0.92 | 0.845 | 0.824 | 0.491 | 0.525 | 0.698 | 0.499 | 0.301 | 0.362 | 0.38 | 0.335 | 0.717 | 0.831 | 1.07 | 0.957
7 | NCI-H838 | 1.21 | 1.19 | 1.28 | 0.556 | 1.23 | 1.02 | 1.11 | 0.75 | 0.274 | 0.273 | 0.286 | 0.231 | 0.364 | 0.249 | 0.403 | 0.25 | 0.408 | 0.469 | 0.479 | 0.374
